Measured values from ChEMBL document CHEMBL3885861, “Open TG-GATES”.

Species: Rattus norvegicus
Experiment: Open TG-GATES - Regimen: Single
Type: toxicity, organism-based, Sprague-Dawley
Parameters: regimen Single, gender Male, age 6 weeks
Conditions: in vivo, po, route gavage; for APTT / Bas / Eos / Fbg / Hb / Ht / Lym / MCH / MCHC / MCV / Mono / Neu / PT / Plat / RBC / Ret / WBC: tissue Blood; for ALP / ALT / AST / BUN / CRE / DBIL / GLC / IP / K / Na / PL / RALB / TBIL / TC / TG / TP / gamma-GTP: tissue Plasma
[1] = 100 mg/kg, 3 h, dose level Middle
[2] = 100 mg/kg, 6 h, dose level Middle
[3] = 100 mg/kg, 9 h, dose level Middle
[4] = 100 mg/kg, 24 h, dose level Middle
[5] = 300 mg/kg, 3 h, dose level High
[6] = 300 mg/kg, 6 h, dose level High
[7] = 300 mg/kg, 9 h, dose level High
[8] = 300 mg/kg, 24 h, dose level High

Compound: NS(=O)(=O)c1cc(C(=O)O)c(NCc2ccco2)cc1Cl [FUROSEMIDE]
- TERMINAL_BW [1]: 199.5 g
- APTT [1]: 18.8 s
- Bas [1]: 0%
- Eos [1]: 1%
- Fbg [1]: 324.8 mg/dL
- Hb [1]: 14.3 g/dL
- Ht [1]: 42.5%
- Lym [1]: 70.8%
- MCH [1]: 21.4 pg
- MCHC [1]: 33.7%
- MCV [1]: 63.3 fL
- Mono [1]: 5.4%
- Neu [1]: 22%
- PT [1]: 14.9 s
- Plat [1]: 121.3 x10_4/uL
- RBC [1]: 670.4 x10_4/ul
- Ret [1]: 7.9%
- WBC [1]: 73.3 x10_2/uL
- ALP [1]: 1574.2 IU/L
- ALT [1]: 43.6 IU/L
- AST [1]: 77.6 IU/L
- BUN [1]: 19.8 mg/dL
- CRE [1]: 0.3 mg/dL
- DBIL [1]: 0.01 mg/dL
- GLC [1]: 182.2 mg/dL
- IP [1]: 11.3 mg/dL
- K [1]: 3.6 meq/L
- Na [1]: 140.8 meq/L
- PL [1]: 161.6 mg/dL
- RALB [1]: 3 g/dL
- TBIL [1]: 0.064 mg/dL
- TC [1]: 88 mg/dL
- TG [1]: 64.2 mg/dL
- TP [1]: 6.4 g/dL
- gamma-GTP [1]: 1 IU/L
- TERMINAL_BW [2]: 195.4 g
- APTT [2]: 17.3 s
- Bas [2]: 0%
- Eos [2]: 1%
- Fbg [2]: 323.2 mg/dL
- Hb [2]: 14.7 g/dL
- Ht [2]: 43.3%
- Lym [2]: 64.8%
- MCH [2]: 20.8 pg
- MCHC [2]: 33.8%
- MCV [2]: 61.7 fL
- Mono [2]: 4.2%
- Neu [2]: 29.6%
- PT [2]: 14.9 s
- Plat [2]: 125.9 x10_4/uL
- RBC [2]: 703.4 x10_4/ul
- Ret [2]: 7.7%
- WBC [2]: 73.2 x10_2/uL
- ALP [2]: 1685 IU/L
- ALT [2]: 42.6 IU/L
- AST [2]: 84.6 IU/L
- BUN [2]: 21.8 mg/dL
- CRE [2]: 0.2 mg/dL
- DBIL [2]: 0.012 mg/dL
- GLC [2]: 192.6 mg/dL
- IP [2]: 10.4 mg/dL
- K [2]: 3.5 meq/L
- Na [2]: 141.2 meq/L
- PL [2]: 162.8 mg/dL
- RALB [2]: 3 g/dL
- TBIL [2]: 0.068 mg/dL
- TC [2]: 83.6 mg/dL
- TG [2]: 71.8 mg/dL
- TP [2]: 6.4 g/dL
- gamma-GTP [2]: 1 IU/L
- TERMINAL_BW [3]: 193.8 g
- APTT [3]: 18 s
- Bas [3]: 0%
- Eos [3]: 0.8%
- Fbg [3]: 334.8 mg/dL
- Hb [3]: 14.6 g/dL
- Ht [3]: 42.6%
- Lym [3]: 68.6%
- MCH [3]: 20.8 pg
- MCHC [3]: 34.1%
- MCV [3]: 61.1 fL
- Mono [3]: 3.2%
- Neu [3]: 26.8%
- PT [3]: 15 s
- Plat [3]: 133.5 x10_4/uL
- RBC [3]: 697.8 x10_4/ul
- Ret [3]: 7.4%
- WBC [3]: 72.2 x10_2/uL
- ALP [3]: 1341.8 IU/L
- ALT [3]: 36.2 IU/L
- AST [3]: 74.6 IU/L
- BUN [3]: 20.2 mg/dL
- CRE [3]: 0.2 mg/dL
- DBIL [3]: 0.01 mg/dL
- GLC [3]: 173.8 mg/dL
- IP [3]: 11.1 mg/dL
- K [3]: 3.6 meq/L
- Na [3]: 141.4 meq/L
- PL [3]: 149.6 mg/dL
- RALB [3]: 3 g/dL
- TBIL [3]: 0.072 mg/dL
- TC [3]: 88.6 mg/dL
- TG [3]: 36.2 mg/dL
- TP [3]: 6.3 g/dL
- gamma-GTP [3]: 0.8 IU/L
- TERMINAL_BW [4]: 215 g
- APTT [4]: 17.7 s
- Bas [4]: 0%
- Eos [4]: 0.8%
- Fbg [4]: 286.8 mg/dL
- Hb [4]: 13.3 g/dL
- Ht [4]: 39.6%
- Lym [4]: 80.4%
- MCH [4]: 21.9 pg
- MCHC [4]: 33.7%
- MCV [4]: 64.9 fL
- Mono [4]: 2.4%
- Neu [4]: 15%
- PT [4]: 15.7 s
- Plat [4]: 102.2 x10_4/uL
- RBC [4]: 610.4 x10_4/ul
- Ret [4]: 7%
- WBC [4]: 102.9 x10_2/uL
- ALP [4]: 1380 IU/L
- ALT [4]: 42.4 IU/L
- AST [4]: 68.2 IU/L
- BUN [4]: 19.4 mg/dL
- CRE [4]: 0.2 mg/dL
- DBIL [4]: 0.008 mg/dL
- GLC [4]: 189.4 mg/dL
- IP [4]: 8 mg/dL
- K [4]: 3.7 meq/L
- Na [4]: 141.6 meq/L
- PL [4]: 155.2 mg/dL
- RALB [4]: 2.6 g/dL
- TBIL [4]: 0.054 mg/dL
- TC [4]: 81.4 mg/dL
- TG [4]: 56 mg/dL
- TP [4]: 5.7 g/dL
- gamma-GTP [4]: 0.2 IU/L
- TERMINAL_BW [5]: 199.2 g
- APTT [5]: 18.3 s
- Bas [5]: 0%
- Eos [5]: 1%
- Fbg [5]: 357 mg/dL
- Hb [5]: 14.8 g/dL
- Ht [5]: 43.9%
- Lym [5]: 66.6%
- MCH [5]: 21.4 pg
- MCHC [5]: 33.7%
- MCV [5]: 63.6 fL
- Mono [5]: 4.6%
- Neu [5]: 26.4%
- PT [5]: 14.8 s
- Plat [5]: 119.6 x10_4/uL
- RBC [5]: 690.4 x10_4/ul
- Ret [5]: 8.3%
- WBC [5]: 67.2 x10_2/uL
- ALP [5]: 1694 IU/L
- ALT [5]: 47.2 IU/L
- AST [5]: 78.4 IU/L
- BUN [5]: 19.4 mg/dL
- CRE [5]: 0.3 mg/dL
- DBIL [5]: 0.01 mg/dL
- GLC [5]: 193.8 mg/dL
- IP [5]: 12.8 mg/dL
- K [5]: 3.4 meq/L
- Na [5]: 140 meq/L
- PL [5]: 168.2 mg/dL
- RALB [5]: 3.2 g/dL
- TBIL [5]: 0.062 mg/dL
- TC [5]: 91.6 mg/dL
- TG [5]: 69 mg/dL
- TP [5]: 6.9 g/dL
- gamma-GTP [5]: 0.8 IU/L
- TERMINAL_BW [6]: 194.8 g
- APTT [6]: 20.9 s
- Bas [6]: 0%
- Eos [6]: 1%
- Fbg [6]: 381.6 mg/dL
- Hb [6]: 15.3 g/dL
- Ht [6]: 45.3%
- Lym [6]: 62.6%
- MCH [6]: 21.4 pg
- MCHC [6]: 33.8%
- MCV [6]: 63.5 fL
- Mono [6]: 4%
- Neu [6]: 31.8%
- PT [6]: 14.4 s
- Plat [6]: 126.6 x10_4/uL
- RBC [6]: 715 x10_4/ul
- Ret [6]: 7.7%
- WBC [6]: 72.7 x10_2/uL
- ALP [6]: 1419.8 IU/L
- ALT [6]: 39.2 IU/L
- AST [6]: 77.2 IU/L
- BUN [6]: 24.4 mg/dL
- CRE [6]: 0.3 mg/dL
- DBIL [6]: 0.008 mg/dL
- GLC [6]: 190.6 mg/dL
- IP [6]: 11.4 mg/dL
- K [6]: 3.5 meq/L
- Na [6]: 140 meq/L
- PL [6]: 190 mg/dL
- RALB [6]: 3.2 g/dL
- TBIL [6]: 0.068 mg/dL
- TC [6]: 111.4 mg/dL
- TG [6]: 64.2 mg/dL
- TP [6]: 6.9 g/dL
- gamma-GTP [6]: 0.6 IU/L
- TERMINAL_BW [7]: 192 g
- APTT [7]: 19.5 s
- Bas [7]: 0%
- Eos [7]: 0.8%
- Fbg [7]: 382.4 mg/dL
- Hb [7]: 15.3 g/dL
- Ht [7]: 44.8%
- Lym [7]: 66.4%
- MCH [7]: 21.3 pg
- MCHC [7]: 34.1%
- MCV [7]: 62.5 fL
- Mono [7]: 3.4%
- Neu [7]: 28.4%
- PT [7]: 14.4 s
- Plat [7]: 117.9 x10_4/uL
- RBC [7]: 716 x10_4/ul
- Ret [7]: 7.8%
- WBC [7]: 73.1 x10_2/uL
- ALP [7]: 1461.8 IU/L
- ALT [7]: 38 IU/L
- AST [7]: 71.6 IU/L
- BUN [7]: 25.2 mg/dL
- CRE [7]: 0.2 mg/dL
- DBIL [7]: 0.012 mg/dL
- GLC [7]: 186.8 mg/dL
- IP [7]: 10.9 mg/dL
- K [7]: 3.3 meq/L
- Na [7]: 141.6 meq/L
- PL [7]: 176.8 mg/dL
- RALB [7]: 3.2 g/dL
- TBIL [7]: 0.078 mg/dL
- TC [7]: 102 mg/dL
- TG [7]: 33.6 mg/dL
- TP [7]: 6.8 g/dL
- gamma-GTP [7]: 1 IU/L
- TERMINAL_BW [8]: 195.5 g
- APTT [8]: 16.8 s
- Bas [8]: 0.2%
- Eos [8]: 1%
- Fbg [8]: 386.6 mg/dL
- Hb [8]: 14.5 g/dL
- Ht [8]: 41.9%
- Lym [8]: 74%
- MCH [8]: 21.2 pg
- MCHC [8]: 34.5%
- MCV [8]: 61.3 fL
- Mono [8]: 3.4%
- Neu [8]: 20.4%
- PT [8]: 15.2 s
- Plat [8]: 117.8 x10_4/uL
- RBC [8]: 683.8 x10_4/ul
- Ret [8]: 6.7%
- WBC [8]: 95.6 x10_2/uL
- ALP [8]: 1470.8 IU/L
- ALT [8]: 44.4 IU/L
- AST [8]: 72.8 IU/L
- BUN [8]: 36.2 mg/dL
- CRE [8]: 0.3 mg/dL
- DBIL [8]: 0.014 mg/dL
- GLC [8]: 178.4 mg/dL
- IP [8]: 7.8 mg/dL
- K [8]: 3.3 meq/L
- Na [8]: 138.2 meq/L
- PL [8]: 159.2 mg/dL
- RALB [8]: 3 g/dL
- TBIL [8]: 0.064 mg/dL
- TC [8]: 93.2 mg/dL
- TG [8]: 43 mg/dL
- TP [8]: 6.4 g/dL
- gamma-GTP [8]: 0.8 IU/L
